Data reported in the supplement of paper PMC10307832.

Experiments:
Assay in all cases: relative viability (nuclei count vs DMSO), 5 days (fraction); higher = more cells survive
NCI-H650 = tested on: NCI-H650
How it was run: (§1)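 Lung cancer cell lines, seeded in 1536-well plates, were treated the following day by pin tool with a single drug or with five library-drug doses (not always all listed) in √10 steps on top of a fixed anchor-drug dose. Cells were fixed and nuclei stained in one step after 5 days, and nuclei were counted. Relative viability is the nuclei count for treated wells divided by that for vehicle wells, reported as medians of duplicate plates.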

NCI-H838 = tested on: NCI-H838
How it was run: as §1

LC-2-ad = tested on: LC-2-ad
How it was run: as §1

NCI-H1915 = tested on: NCI-H1915
How it was run: as §1

HARA = tested on: HARA
How it was run: as §1

NCI-H2023 = tested on: NCI-H2023
How it was run: as §1

HOP-62 = tested on: HOP-62
How it was run: as §1

LU99A = tested on: LU99A
How it was run: as §1

NCI-H1651 = tested on: NCI-H1651
How it was run: as §1

NCI-H2085 = tested on: NCI-H2085
How it was run: as §1

HCC-44 = tested on: HCC-44
How it was run: as §1

NCI-H2126 = settings: first compound 0.0002 µM
How it was run: as §1

CC(=O)O[C@@]12CO[C@@H]1C[C@H](O)[C@@]1(C)C(=O)[C@H](O)C3=C(C)[C@@H](OC(=O)[C@H](O)[C@@H](NC(=O)OC(C)(C)C)c4ccccc4)C[C@@](O)([C@@H](OC(=O)c4ccccc4)[C@H]21)C3(C)C [Docetaxel] + CC(C)C[C@H](NC(=O)[C@H](Cc1ccccc1)NC(=O)c1cnccn1)B(O)O [Bortezomib] (partner 0.002 µM)
relative viability (NCI-H650; first compound 0.0002 µM): 0.636
relative viability (NCI-H650; first compound 0.000632 µM): 0.425
relative viability (NCI-H650; first compound 0.002 µM): 0.309
relative viability (NCI-H650; first compound 0.006325 µM): 0.233
relative viability (NCI-H650; first compound 0.02 µM): 0.196
relative viability (NCI-H838; first compound 0.0002 µM): 0.795
relative viability (NCI-H838; first compound 0.000632 µM): 0.522
relative viability (NCI-H838; first compound 0.002 µM): 0.247
relative viability (NCI-H838; first compound 0.006325 µM): 0.154
relative viability (NCI-H838; first compound 0.02 µM): 0.0975
relative viability (LC-2-ad; first compound 0.0002 µM): 0.702
relative viability (LC-2-ad; first compound 0.002 µM): 0.125
relative viability (LC-2-ad; first compound 0.006325 µM): 0.116
relative viability (LC-2-ad; first compound 0.02 µM): 0.11
relative viability (NCI-H1915; first compound 0.0002 µM): 0.905
relative viability (NCI-H1915; first compound 0.000632 µM): 0.95
relative viability (NCI-H1915; first compound 0.002 µM): 0.577
relative viability (NCI-H1915; first compound 0.006325 µM): 0.147
relative viability (NCI-H1915; first compound 0.02 µM): 0.116
relative viability (HARA; first compound 0.0002 µM): 1.04
relative viability (HARA; first compound 0.000632 µM): 0.372
relative viability (HARA; first compound 0.002 µM): 0.376
relative viability (HARA; first compound 0.006325 µM): 0.118
relative viability (HARA; first compound 0.02 µM): 0.0895
relative viability (NCI-H2023; first compound 0.0002 µM): 0.89
relative viability (NCI-H2023; first compound 0.000632 µM): 0.456
relative viability (NCI-H2023; first compound 0.002 µM): 0.134
relative viability (NCI-H2023; first compound 0.006325 µM): 0.101
relative viability (NCI-H2023; first compound 0.02 µM): 0.0677
relative viability (HOP-62; first compound 0.0002 µM): 0.726
relative viability (HOP-62; first compound 0.000632 µM): 0.828
relative viability (HOP-62; first compound 0.02 µM): 0.128
relative viability (LU99A; first compound 0.0002 µM): 1.01
relative viability (LU99A; first compound 0.000632 µM): 0.637
relative viability (LU99A; first compound 0.002 µM): 0.545
relative viability (LU99A; first compound 0.006325 µM): 0.282
relative viability (LU99A; first compound 0.02 µM): 0.221
relative viability (NCI-H1651; first compound 0.0002 µM): 0.802
relative viability (NCI-H1651; first compound 0.000632 µM): 0.926
relative viability (NCI-H1651; first compound 0.002 µM): 0.744
relative viability (NCI-H1651; first compound 0.006325 µM): 0.22
relative viability (NCI-H1651; first compound 0.02 µM): 0.137
relative viability (NCI-H2085; first compound 0.0002 µM): 0.882
relative viability (NCI-H2085; first compound 0.000632 µM): 1.06
relative viability (NCI-H2085; first compound 0.002 µM): 0.718
relative viability (NCI-H2085; first compound 0.006325 µM): 0.54
relative viability (NCI-H2085; first compound 0.02 µM): 0.46
relative viability (HCC-44; first compound 0.0002 µM): 0.904
relative viability (HCC-44; first compound 0.000632 µM): 0.905
relative viability (HCC-44; first compound 0.002 µM): 0.57
relative viability (HCC-44; first compound 0.006325 µM): 0.151
relative viability (HCC-44; first compound 0.02 µM): 0.149
relative viability (NCI-H2126): 1.12
